Assay: excess molar enthalpy (molar enthalpy of mixing); xn = mol fraction of the nth substance listed
Conditions: 773.15 K, 101 kPa, Liquid, Calvet calorimetry

[In] [indium] + [Sn]
Conditions | excess molar enthalpy [kcal/mol]
x2 = 0.1 | -0.0437
x2 = 0.1966 | -0.0894
x2 = 0.2981 | -0.104
x2 = 0.4041 | -0.0915
x2 = 0.5002 | -0.0791
x2 = 0.5005 | -0.0755
x2 = 0.5949 | -0.0719
x2 = 0.6901 | -0.0576
x2 = 0.7891 | -0.0394
x2 = 0.8975 | -0.0208

From the NIST ThermoML archive (doi:10.1016/j.tca.2010.02.008)
